Source: US20250074919A1, “Heteroaryl compounds as inhibitors of irak4, compositions and applications thereof” (Accro Bioscience (HK) Limited, priority 2021, published 2025)

Target: IRAK4 (Homo sapiens (Human), UniProt Q9NWZ3)
Experiment: Screening the compounds against IRAK4 with ATP (Caliper, FAM-labeled peptide)
Type: biochemical
Conditions: for IC50: read-out: IC50 (nM) (10 μM ATP), IRAK4 kinase, 10 μM ATP
Protocol: Prepare Ix kinase base buffer and stop buffer for testing kinases: (1) base buffer: 50 mM HEPES (pH 7.5), 0.0015% Brij-35; (2) stop buffer: 100 mM HEPES (pH 7.5), 0.015% Brij-35, 0.2% Coating Reagent #3, 50 mM EDTA. Then prepare compounds for testing: Dilute the compound to 50× of the final desired highest inhibitor concentration in reaction by 100% DMSO. Transfer 100 μL of this compound dilution to a well in a 96-well plate (source plate).
Serially dilute the compounds by 3-fold for a total of 10 points. Transfer 10 μL of the compound from the source plate to a new 96-well plate (intermediate plate) and add 90 μL of Ix kinase buffer. Shake the mixture on the intermediate plate for 10 min. Transfer 5 μL of each well from the 96-well intermediate plate to a 384-well plate in duplicates. Add 10 μL of 2.5× enzyme solution to each well of the 384-well assay plate and incubate at room temperature for 10 min. Add 10 μL, of 2.5×FAM-labeled peptide and ATP solution and incubate at 28° C. for a period of time. Finally stop the reaction by adding 30 μL of stop buffer and collect data on Caliper to obtain the IC50.

Sequence of IRAK4 (Q9NWZ3 whole entry): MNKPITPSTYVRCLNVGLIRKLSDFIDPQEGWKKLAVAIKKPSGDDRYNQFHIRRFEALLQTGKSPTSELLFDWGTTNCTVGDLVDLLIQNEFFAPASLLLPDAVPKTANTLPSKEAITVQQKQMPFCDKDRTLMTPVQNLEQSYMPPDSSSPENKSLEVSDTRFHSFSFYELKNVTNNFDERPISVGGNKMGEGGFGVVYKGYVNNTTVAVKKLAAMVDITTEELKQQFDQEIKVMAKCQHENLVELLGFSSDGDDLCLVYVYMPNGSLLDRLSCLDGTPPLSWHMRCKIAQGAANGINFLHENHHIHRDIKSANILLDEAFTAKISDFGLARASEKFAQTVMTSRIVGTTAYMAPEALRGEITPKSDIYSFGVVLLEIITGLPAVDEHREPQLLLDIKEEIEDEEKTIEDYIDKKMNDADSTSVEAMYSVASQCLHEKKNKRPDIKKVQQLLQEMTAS

Row | Structure (SMILES) | IC50 [nM] | activity, times better than that of the positive control compound CA4948 (IRAK4 kinase inhibition relative to CA4948)
1 | Cn1cc(-c2cccc(NC(=O)c3cc4oc(N5CCOCC5)nc4nc3N3CC[C@H](O)C3)n2)cn1 [Compound A6, (S)-5-(3-hydroxypyrrolidin-1-yl)-N-(6-(1-methyl-1H-pyrazol-4-yl)pyridin-2-yl)-2-morpholinooxazolo[4,5-b]pyridine-6-carboxamide] | 194 | 
2 | Cn1cc(-c2cccc(NC(=O)c3cc4oc(N5CCOCC5)nc4nc3N3CCNCC3)n2)cn1 [Compound A13, N-(6-(1-Methyl-1H-pyrazol-4-yl)pyridin-2-yl)-2-morpholino-5-(piperazin-1-yl)oxazolo[4,5-b]pyridine-6-carboxamide] | 304 | 
3 | Cn1cc(-c2cccc(NC(=O)c3cc4oc(N5CCOCC5)nc4nc3N3CC(C)(O)C3)n2)cn1 [Compound A14, 5-(3-Hydroxy-3-methylazetidin-1-yl)-N-(6-(1-methyl-1H-pyrazol-4-yl)pyridin-2-yl)-2-morpholinooxazolo[4,5-b]pyridine-6-carboxamide] | 164 | 
4 | Cn1cc(-c2cccc(NC(=O)c3cc4oc(N5CCOCC5)nc4nc3N3CC4(C3)CC(F)(F)C4)n2)cn1 [Compound A15, 5-(6,6-Difluoro-2-azaspiro[3.3]heptan-2-yl)-N-(6-(1-methyl-1H-pyrazol-4-yl)pyridin-2-yl)-2-morpholinooxazolo[4,5-b]pyridine-6-carboxamide] | 244 | 
5 | Cn1cc(-c2cccc(NC(=O)c3cc4oc(N5CCOCC5)nc4nc3N3CC4(CCOC4)C3)n2)cn1 [Compound A18, N-(6-(1-Methyl-1H-pyrazol-4-yl)pyridin-2-yl)-2-morpholino-5-(6-oxa-2-azaspiro[3.4]octan-2-yl)oxazolo[4,5-b]pyridine-6-carboxamide] | 221 | 
6 | Cn1cc(-c2cccc(NC(=O)c3cc4oc(N5CCOCC5)nc4nc3N3CC4(CC(O)C4)C3)n2)cn1 [Compound A22, 5-(6-Hydroxy-2-azaspiro[3.3]heptan-2-yl)-N-(6-(1-methyl-1H-pyrazol-4-yl)pyridin-2-yl)-2-morpholinooxazolo[4,5-b]pyridine-6-carboxamide] | 188 | 

Now those with a lower IC50, led by results:

Row | IC50 [nM] | activity, times better than that of the positive control compound CA4948 (IRAK4 kinase inhibition relative to CA4948) | Structure (SMILES)
7 | 43 |  | CN1CCN(c2nc3nc(N4CCOCC4)oc3cc2C(=O)Nc2cccc(-c3cnn(C)c3)n2)CC1 [Compound A3, N-(6-(1-methyl-1H-pyrazol-4-yl)pyridin-2-yl)-5-(4-methylpiperazin-1-yl)-2-morpholinooxazolo[4,5-b]pyridine-6-carboxamide]
8 | 122 |  | Cn1cc(-c2cccc(NC(=O)c3cc4oc(N5CCOCC5)nc4nc3N3CC(O)(C4CC4)C3)n2)cn1 [Compound A10, 5-(3-Cyclopropyl-3-hydroxyazetidin-1-yl)-N-(6-(1-methyl-1H-pyrazol-4-yl)pyridin-2-yl)-2-morpholinooxazolo[4,5-b]pyridine-6-carboxamide]
9 | 22 | more than 5 times | Cn1cc(-c2cccc(NC(=O)c3cc4oc(N5CCOCC5)nc4nc3N3CCC(F)(F)CC3)n2)cn1 [Compound A11, 5-(4,4-Difluoropiperidin-1-yl)-N-(6-(1-methyl-1H-pyrazol-4-yl)pyridin-2-yl)-2-morpholinooxazolo[4,5-b]pyridine-6-carboxamide]
10 | 33 |  | Cn1cc(-c2cccc(NC(=O)c3cc4oc(N5CCOCC5)nc4nc3N3CCC(F)(F)C3)n2)cn1 [Compound A12, 5-(3,3-Difluoropyrrolidin-1-yl)-N-(6-(1-methyl-1H-pyrazol-4-yl)pyridin-2-yl)-2-morpholinooxazolo[4,5-b]pyridine-6-carboxamide]
11 | 31 |  | Cn1cc(-c2cccc(NC(=O)c3cc4oc(N5CCOCC5)nc4nc3N3CCCC(O)C3)n2)cn1 (stereo not shown) [Compound A16, 5-(3-Hydroxypiperidin-1-yl)-N-(6-(1-methyl-1H-pyrazol-4-yl)pyridin-2-yl)-2-morpholinooxazolo[4,5-b]pyridine-6-carboxamide]
12 | 26 |  | Cn1cc(-c2cccc(NC(=O)c3cc4oc(N5CCOCC5)nc4nc3N3CCN4CCC[C@@H]4C3)n2)cn1 [Compound A21, (R)-5-(Hexahydropyrrolo[1,2-a]pyrazin-2(1H)-yl)-N-(6-(1-methyl-1H-pyrazol-4-yl)pyridin-2-yl)-2-morpholinooxazolo[4,5-b]pyridine-6-carboxamide]
